# Results published in patent US20250152559A1, “METHODS FOR TREATING MYC-AMPLIFIED CANCER” (The Governing Council of the University of Toronto, priority 2023, published 2025).
# Key:
# Test in all cases: PrestoBlue cell viability, 72-hour treatment, limiting dilution
# D458 = type: cell-based; conditions: Homo sapiens; D458, G3MB-MYC; read-out: Brequinar IC50
# Description: (§1) SU_MB002, NSC194, NSC197 and NSC201FT, MBT375 and MED411FHTC were maintained in Neurocult Complete (NCC) media (Stem Cell Technologies; catalogue #05751). D425 and D458 were maintained in Dulbecco's […] (DMEM) containing 10% fetal bovine serum (FBS). HD-MB03 were maintained in NCC containing 10% FBS. All cell lines were conditioned in NCC for a minimum of 48 hours before experimentation. SU_MB002 and HD-MB03 G3MB-MYC PDOX were obtained from collaborators as kind gifts and are frequently passaged in vivo. SU_MB002, a treatment-refractory group 3 MB acquired at autopsy was received from Dr. Yoon-Jae Cho. Dr. Till Milde provided HD-MB03, a treatment-naïve group 3 MBs. ICB1299 group 4 MB cells were obtained as a gift from Silvia Marino's laboratory^62. MBT375 was established in-house from a surgical specimen of group 4 MB, which was engrafted in the cerebellum of mice for serial propagation. Nanostring genotyping was used to confirm group 4 medulloblastoma identity. MED411FHTC PDOX were procured from Dr. Olson's brain tumor research lab. D425 and D458 were obtained from the ATCC. All cell lines were fingerprint verified by short tandem repeat (STR) profiling. NSC194, NSC197 and NSC201FT were derived in-house from donor fetal brain tissues^63.
# (§2) For assessment of viability, cells were seeded into 96-well plates at a density of 1,000 cells per well. Viability was measured by adding PrestoBlue™ diluted 1:10 (ThermoFisher Scientific; Catalogue #A13261) followed by a 4-hour incubation. Relative fluorescence intensity was determined via background correction. To assess tumorsphere forming capacity, cells were seeded at a low density (200 cells per well) and incubated for 3-5 days. Tumorspheres were manually counted thereafter.
# MED411-FHTC = type: cell-based; conditions: Homo sapiens, G3MB-MYC, read-out: Brequinar IC50
# Description: as §1, §2
# D425 = type: cell-based; conditions: Homo sapiens; D425, G3MB-MYC; read-out: Brequinar IC50
# Description: as §1, §2
# HD-MB03 = type: cell-based; conditions: Homo sapiens; HD-MB03, G3MB-MYC; read-out: Brequinar IC50
# Description: as §1, §2
# SU_MB002 = type: cell-based, human; conditions: for potency on tumor cell viability: SU_MB002 tumor cells
# Description: as §1, §2
Structure (SMILES),IC50 (D458) [nM],IC50 (MED411-FHTC) [nM],IC50 (D425) [nM],IC50 (HD-MB03) [nM],"IC50 (SU_MB002; Homo sapiens, SU_MB002, G3MB-MYC, read-out: Brequinar IC50) [nM]","tumor cell proliferation and viability with uridine supplementation (SU_MB002; SU_MB002, media with uridine hydrochloride (100 μM))",potency on tumor cell viability (SU_MB002)
Cc1c(-c2ccc(-c3ccccc3F)cc2)nc2ccc(F)cc2c1C(=O)O [Brequinar],110,137,122,54.4,302,rescues,nanomolar range
COc1ccc([C@H]2c3[nH]c4ccc(Cl)cc4c3CCN2C(=O)Oc2ccc(Cl)cc2)cc1 [PTC299],,,,,,,nanomolar range
